Data on 15 compounds can be found in ChEMBL document CHEMBL2034837, “Discovery of Natural Phenols as G Protein-Coupled Receptor-35 (GPR35) Agonists” (ACS Med Chem Lett, 2012).

pEC50, pIC50: −log10 of the molar value. Activity calls are given as the source filed them. No cut-off for these calls is given here.

The target in test [1] is T1, G-protein coupled receptor 35 (Homo sapiens, UniProt Q9HC97). Put plainly: Agonist activity at GPR35 receptor in human U2OS cells coexpressing Gal4-VP16-TEV assessed as beta arrestin translocation after 5 hrs by beta lactamase reporter gene assay. In kind it is functional, cell-based. Background: A reporter such as luciferase makes a cellular process visible.
The target in test [2] is T1, G-protein coupled receptor 35. Put plainly: Agonist activity at GPR35 receptor in human U2OS cells coexpressing Gal4-VP16-TEV assessed as beta arrestin translocation after 5 hrs by beta lactamase reporter gene assay relative to control. In kind it is functional, cell-based.
Test [3] has the same target. Put plainly: Agonist activity at GPR35 receptor in human HT-29 cells assessed as shift in resonant wavelength of biosensor stimulation after 10 mins by dynamic mass redistribution assay relative to control. In kind it is functional, cell-based.
Test [4] shares this target. Put plainly: Partial agonist activity at GPR35 receptor in human U2OS cells coexpressing Gal4-VP16-TEV assessed as beta arrestin translocation after 5 hrs by beta lactamase reporter gene assay. In kind it is functional, cell-based.
For test [5] the target is unchanged. The test can be described thus: Agonist activity at GPR35 receptor in human HT-29 cells at 32 uM after 10 mins by dynamic mass redistribution assay in the presence of SPB05142. In kind it is functional, cell-based.
For test [6] the target is unchanged. The test can be described thus: Desensitization of GPR35 receptor in human HT-29 cells assessed as inhibition of zaprinast-induced dynamic mass redistribution after 10 mins. In kind it is cell-based.
Test [7] has the same target. The test can be described thus: Agonist activity at GPR35 receptor in human HT-29 cells after 10 mins by dynamic mass redistribution assay. In kind it is functional, cell-based.
The target is the same in test [8]. The test can be described thus: Agonist activity at GPR35 receptor in human HT-29 cells at 4 uM after 10 mins by dynamic mass redistribution assay in the presence of SPB05142. In kind it is functional, cell-based.
For test [9] the target is unchanged. Put plainly: Agonist activity at GPR35 receptor in human HT-29 cells at 2 uM after 10 mins by dynamic mass redistribution assay in the presence of SPB05142. In kind it is functional, cell-based.
The target is the same in test [10]. The test can be described thus: Agonist activity at GPR35 receptor in human HT-29 cells at 16 uM after 10 mins by dynamic mass redistribution assay in the presence of SPB05142. In kind it is functional, cell-based.
For test [11] the target is unchanged. Put plainly: Agonist activity at GPR35 receptor in human HT-29 cells at 8 uM after 10 mins by dynamic mass redistribution assay in the presence of SPB05142. In kind it is functional, cell-based.
The target is the same in test [12]. The test can be described thus: Partial agonist activity at GPR35 receptor in human HT-29 cells after 10 mins by dynamic mass redistribution assay. In kind it is functional, cell-based.

T1 sequence (Q9HC97 whole entry, the tested form may be a part): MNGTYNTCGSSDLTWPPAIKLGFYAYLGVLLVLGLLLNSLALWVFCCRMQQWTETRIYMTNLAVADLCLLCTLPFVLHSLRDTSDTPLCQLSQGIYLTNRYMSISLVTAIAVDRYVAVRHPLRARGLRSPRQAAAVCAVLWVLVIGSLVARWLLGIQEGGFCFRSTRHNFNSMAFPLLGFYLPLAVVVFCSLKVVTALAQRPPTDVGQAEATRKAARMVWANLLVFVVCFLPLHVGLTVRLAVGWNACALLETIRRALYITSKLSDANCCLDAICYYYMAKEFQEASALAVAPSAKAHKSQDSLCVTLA

The term pEC50 denotes the EC50 on a negative log10 scale, so that one unit is a factor of ten. As to `Cc1c(C(=O)O)sc2c(Br)csc12`, the pEC50 in test [1] was 4.75. Moreover, the Ratio in [2] was found to be 13.9. Besides, the Efficacy in test [3] came out at 283 picometer.

With `CCCOc1ccccc1-c1nc2[nH]nnc2c(=O)[nH]1`, in [3], the Efficacy was found to be 269 picometer.

For `O=C(O)c1cccnc1Nc1cccc(C(F)(F)F)c1`, in [4], the outcome was Active. Also, in test [5], the result was inactive. The Activity result in test [6] and in test [7] was “Dose-dependent effect” each time. In addition, the Efficacy in [3] was determined as 260 picometer.

The term pIC50 denotes the IC50 on a negative log10 scale, so that one unit is a factor of ten. On to `O=C(O)c1cc(O)c(=O)c2c(O)c(O)ccc2c1` [7-DESHYDROXYPYROGALLIN-4-CARBOXYLIC ACID], for which the values for the pEC50 in test [1] and in test [7] were 4.91 and 7.27, respectively. Moreover, the Ratio in test [2] was found to be 10.9. For the same compound, the pIC50 in test [6] was 6.96. In addition, the result in test [8] was inactive. The Efficacy in test [3] was 233 picometer.

With `O=c1cc(-c2ccccc2)oc2cc(O)c(O)c(O)c12` [BAICALEIN], the pEC50 in test [1] was 4.64; in [7] it was 4.99. Also, the Ratio in test [2] came to 2.1. In test [4], the outcome was Active. The outcome in test [5] was inactive. Also, the pIC50 in test [6] was 4.55. Also, in test [3], the Efficacy came to 248 picometer.

Take `O=c1oc2c(O)c(O)cc3c(=O)oc4c(O)c(O)cc1c4c23` [ELLAGIC ACID]: the pEC50 in test [1] is 5.53; in [7], 6.96. Also, in [2], the Ratio is 3.4. Besides, the pIC50 in [6] was 7.00. Besides, the result in test [9] was inactive. Also, the Efficacy in [3] turned out to be 319 picometer.

On to `O=C1C=C2CC3(O)COc4c(ccc(O)c4O)C3=C2C=C1O` (stereo unspecified) [HEMATEIN], for which the results for the pEC50 in test [1] and in test [7] were 5.33 and 4.95, respectively. In test [10], the outcome was inactive. In [2], the Ratio was determined as 2.1. The pIC50 in test [6] is 4.52. In addition, in test [3], the Efficacy was 391 picometer.

Consider `CC(=O)NCCc1ccc(O)c(-c2c(O)c(O)c3c(c2O)C(=O)c2c(cc(O)c(C(=O)O)c2C(=O)O)C3=O)c1` [LACCACID ACID A], for which the pEC50 in [1] was 4.29; in [7], 6.41. In addition, the Ratio in test [2] is 3.5. The outcome in test [5] was inactive. In addition, the pIC50 in test [6] is 6.41. In test [3], the Efficacy worked out at 263 picometer.

For `CC(C)=CCC1=C(O)C(=O)c2ccccc2C1=O` [LAPACHOL], the result in test [11] was inactive. The results for the pEC50 in test [1] and in test [7] were 4.32 and 5.55, respectively. The Ratio in test [2] amounted to 8.7. Also, the pIC50 in test [6] was 5.33. In addition, the Efficacy in [3] is 328 picometer.

As for `CCCCCc1c2c(cc(O)c1C(=O)O)OC(=O)c1c(cc(OC)cc1C(=O)CCCC)O2` [LOBARIC ACID], the pEC50 in test [1] was 4.75; in test [7], 5.62. Also, in test [10], the result was inactive. The Ratio in [2] came out at 2. In addition, the pIC50 in [6] is 5.34. Besides, the Efficacy in [3] was 317 picometer.

Turning to `O=c1cc(-c2ccc(O)c(O)c2)oc2cc(O)cc(O)c12` [LUTEOLIN], the figures for the pEC50 in [1] and in test [7] were 5.49 and 5.14, respectively. For the same compound, in [2], the Ratio turned out to be 1.5. Besides, the outcome in test [4] and in test [12] was Active. For the same compound, in test [5], the result was inactive. Also, the negative logarithm of the IC50 (pIC50) in test [6] is 4.73. Further, in [3], the Efficacy was found to be 68 picometer.

Take `O=c1c(O)c(-c2ccc(O)cc2O)oc2cc(O)cc(O)c12` [MORIN]: in test [11], the outcome was inactive. For the same compound, the pEC50 in test [1] was 4.95; in [7] it was 5.88. In test [2], the Ratio was 9.8. Also, the pIC50 in test [6] was 5.80. Further, the Efficacy in test [3] was 284 picometer.

Consider `O=c1c(O)c(-c2cc(O)c(O)c(O)c2)oc2cc(O)cc(O)c12` [MYRICETIN], for which the outcome in test [11] was inactive. Further, the pEC50 is 4.83 in [1] and 5.52 in test [7]. Also, in [2], the Ratio worked out at 9.2. Further, the result in test [12] was Active. In addition, the pIC50 in [6] was 5.67. For the same compound, in test [3], the Efficacy is 224 picometer.

Turning to `O=c1c(O)c(-c2ccc(O)c(O)c2)oc2cc(O)cc(O)c12` [QUERCETIN], the pEC50 in [1] was 5.23; in test [7], 5.10. The Ratio in [2] was determined as 2.3. The result in test [12] was Active. The outcome in [5] was inactive. The pIC50 in test [6] was 4.81. Further, the Efficacy in test [3] came to 40 picometer.

`N#C/C(=C\c1ccc(O)cc1)C(=O)O` [alpha-CYANO-4-HYDROXYCINNAMIC ACID]: in [11], the outcome was inactive. Moreover, the values for the negative-log EC50 (pEC50) in test [1] and in test [7] were 4.15 and 5.01, respectively. Also, the Ratio in test [2] was 4. For the same compound, the pIC50 in [6] was 4.52. The Efficacy in test [3] is 331 picometer.
